Tested on: tumor cells
Test: Resistance study with 30 passages
Type: cell-based
Text: It has been shown that the problem can be solved by encapsulation of the polymeric guanidine derivate in PEGylated liposomes, which ensures that the drug substance reaches its target in higher concentrations, e.g. the malignant tumor cells. […] The commonly known cytostatics induce such cellular resistance mechanisms requiring higher, toxic doses, which cause severe side effects.

poly-[2-(2-ethoxyethoxyethyl)guanidinium hydrochloride] [API]
reduction of activity (induction of resistance): no reduction of activity
